Results: patent US20150111750A1, “Substituted N-(tetrazol-5-yl)- and N-(triazol-5-yl)hetarylcarboxamide compounds and their use as herbicides” (BASF SE, priority 2012, published 2015)

Tests used:
Amaranthus retroflexus = assay: Greenhouse post-emergence treatment of Amaranthus retroflexus; format: in vivo; details: application rate 1000 g/ha, scale 0 (no damage) to 100 (complete destruction)
From the text: (§1) The seeds of the test plants were sown separately for each species. For the post-emergence treatment, the test plants were first grown to a height of 3 to 15 cm, depending on the plant habit, and only then treated with the active ingredients which had been suspended or emulsified in water. For this purpose, the test plants were either sown directly and grown in the same containers, or they were first grown separately as seedlings and transplanted into the test containers a few days prior to treatment. Depending on the species, the plants were kept at 10-25° C. or 20-35° C. The test period extended over 2 to 4 weeks. During this time, the plants were tended, and their response to the individual treatments was evaluated. Evaluation was carried out using a scale from 0 to 100. 100 means no emergence of the plants, or complete destruction of at least the aerial moieties, and 0 means no damage, or normal course of growth. A good herbicidal activity is given at values of at least 70 and a very good herbicidal activity is given at values of at least 85. The plants used in the greenhouse experiments belonged to the following species: [table]

Echinochloa crus-galli = assay: Greenhouse post-emergence treatment of Echinochloa crus-galli; format: in vivo; details: application rate 1000 g/ha, scale 0 (no damage) to 100 (complete destruction)
From the text: as §1

Cn1ncnc1NC(=O)c1cnc(Cl)cc1Cl [I.5-1, 4,6-dichloro-N-(2-methyl-1,2,4-triazol-3-yl)pyridine-3-carboxamide]
damage [%] (Amaranthus retroflexus): 65% | damage [%] (Echinochloa crus-galli): 30%
